Reference: ChEMBL document CHEMBL5150061, “Design and Synthesis of Fibroblast Growth Factor Receptor (FGFR) and Histone Deacetylase (HDAC) Dual Inhibitors for the Treatment of Cancer” (J Med Chem, 2022)

Columns and labels:
[1] = Clearance in Sprague-Dawley rat at 2 mg/kg, iv measured for 24 hrs by LC-MS/MS-18 analysis; assay type: ADME, organism-based; conditions: in vivo
[2] = Cmax in Sprague-Dawley rat at 2 mg/kg, iv measured for 24 hrs by LC-MS/MS-18 analysis; assay type: ADME, organism-based; set-up: time 24 hrs, dose 2 mg/kg, route iv; conditions: in vivo
[3] = Half life in Sprague-Dawley rat at 2 mg/kg, iv measured for 24 hrs by LC-MS/MS-18 analysis; assay type: ADME, organism-based; conditions: in vivo
[4] = Tmax in Sprague-Dawley rat at 5 mg/kg, ip measured for 24 hrs by LC-MS/MS-18 analysis; assay type: ADME, organism-based; conditions: in vivo
[5] = Oral bioavailability in Sprague-Dawley rat at 30 mg/kg measured for 24 hrs by LC-MS/MS-18 analysis; assay type: ADME, organism-based; conditions: in vivo
[6] = AUC (0 to infinity) in Sprague-Dawley rat at 2 mg/kg, iv measured for 24 hrs by LC-MS/MS-18 analysis; assay type: ADME, organism-based; set-up: time 24 hrs, dose 2 mg/kg, route iv; conditions: in vivo
Histone deacetylase 2 = Histone deacetylase 2 (Homo sapiens, UniProt Q92769); assay: Inhibition of HDAC2 (unknown origin)
Sequence of Histone deacetylase 2 (Q92769 whole entry): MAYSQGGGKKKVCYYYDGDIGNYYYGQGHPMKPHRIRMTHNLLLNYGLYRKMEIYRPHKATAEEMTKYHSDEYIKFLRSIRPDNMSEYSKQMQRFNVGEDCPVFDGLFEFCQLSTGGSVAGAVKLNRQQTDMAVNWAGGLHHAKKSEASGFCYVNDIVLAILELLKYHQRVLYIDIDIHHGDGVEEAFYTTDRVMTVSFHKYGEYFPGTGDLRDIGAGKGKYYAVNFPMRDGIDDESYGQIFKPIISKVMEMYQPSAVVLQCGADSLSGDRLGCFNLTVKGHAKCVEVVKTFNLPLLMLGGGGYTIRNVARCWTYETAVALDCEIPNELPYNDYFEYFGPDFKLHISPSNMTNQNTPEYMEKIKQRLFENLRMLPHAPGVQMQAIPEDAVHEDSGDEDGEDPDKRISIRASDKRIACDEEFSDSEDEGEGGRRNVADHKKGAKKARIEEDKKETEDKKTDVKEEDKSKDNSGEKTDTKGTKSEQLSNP

[7] = AUC (0 to infinity) in Sprague-Dawley rat at 5 mg/kg, ip measured for 24 hrs by LC-MS/MS-18 analysis; assay type: ADME, organism-based; set-up: time 24 hrs, dose 5 mg/kg, route ip; conditions: in vivo
[8] = Half life in Sprague-Dawley rat at 5 mg/kg, ip measured for 24 hrs by LC-MS/MS-18 analysis; assay type: ADME, organism-based; conditions: in vivo
[9] = Oral bioavailability in Sprague-Dawley rat at 5 mg/kg measured for 24 hrs by LC-MS/MS-18 analysis; assay type: ADME, organism-based; conditions: in vivo, route ip
[10] = Cmax in Sprague-Dawley rat at 5 mg/kg, ip measured for 24 hrs by LC-MS/MS-18 analysis; assay type: ADME, organism-based; set-up: time 24 hrs, dose 5 mg/kg, route ip; conditions: in vivo
[11] = target: Fibroblast growth factor receptor 4 (Homo sapiens, UniProt P22455); assay: Inhibition of FGFR4 (unknown origin)
Sequence of Fibroblast growth factor receptor 4 (P22455 whole entry): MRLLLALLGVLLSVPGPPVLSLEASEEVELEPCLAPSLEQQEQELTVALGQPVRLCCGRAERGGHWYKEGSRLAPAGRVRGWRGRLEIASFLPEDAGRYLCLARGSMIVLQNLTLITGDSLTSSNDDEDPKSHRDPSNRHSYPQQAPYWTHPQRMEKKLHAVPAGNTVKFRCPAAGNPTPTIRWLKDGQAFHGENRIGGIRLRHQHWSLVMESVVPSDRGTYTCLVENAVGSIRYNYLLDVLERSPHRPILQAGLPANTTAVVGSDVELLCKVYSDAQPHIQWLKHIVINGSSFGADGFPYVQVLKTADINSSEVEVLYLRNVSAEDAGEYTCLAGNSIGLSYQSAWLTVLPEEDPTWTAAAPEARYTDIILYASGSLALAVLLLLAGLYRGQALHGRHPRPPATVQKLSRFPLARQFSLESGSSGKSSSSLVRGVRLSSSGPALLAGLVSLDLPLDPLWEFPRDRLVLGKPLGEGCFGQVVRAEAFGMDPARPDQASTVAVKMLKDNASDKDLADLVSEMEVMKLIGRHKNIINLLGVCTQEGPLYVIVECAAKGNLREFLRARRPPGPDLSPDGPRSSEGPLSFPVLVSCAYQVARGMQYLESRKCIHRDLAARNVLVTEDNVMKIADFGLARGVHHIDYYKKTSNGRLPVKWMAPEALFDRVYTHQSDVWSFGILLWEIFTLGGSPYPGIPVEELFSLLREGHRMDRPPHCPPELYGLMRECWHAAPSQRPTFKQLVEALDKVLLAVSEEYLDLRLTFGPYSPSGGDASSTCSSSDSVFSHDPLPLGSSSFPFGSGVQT

[12] = Toxicity in BALB/c nude mouse xenografted with human SNU-16 cells assessed as reduction in body weight at 15 to 30 mg/kg/day, ip administered for 18 days and measured every 3 days; assay type: organism-based; conditions: in vivo, 432 h, dose 15-30 mg/kg/day, time 18 day
[13] = target: Fibroblast growth factor receptor 3 (Homo sapiens, UniProt P22607); assay: Inhibition of FGFR3 (unknown origin)
Sequence of Fibroblast growth factor receptor 3 (P22607 whole entry): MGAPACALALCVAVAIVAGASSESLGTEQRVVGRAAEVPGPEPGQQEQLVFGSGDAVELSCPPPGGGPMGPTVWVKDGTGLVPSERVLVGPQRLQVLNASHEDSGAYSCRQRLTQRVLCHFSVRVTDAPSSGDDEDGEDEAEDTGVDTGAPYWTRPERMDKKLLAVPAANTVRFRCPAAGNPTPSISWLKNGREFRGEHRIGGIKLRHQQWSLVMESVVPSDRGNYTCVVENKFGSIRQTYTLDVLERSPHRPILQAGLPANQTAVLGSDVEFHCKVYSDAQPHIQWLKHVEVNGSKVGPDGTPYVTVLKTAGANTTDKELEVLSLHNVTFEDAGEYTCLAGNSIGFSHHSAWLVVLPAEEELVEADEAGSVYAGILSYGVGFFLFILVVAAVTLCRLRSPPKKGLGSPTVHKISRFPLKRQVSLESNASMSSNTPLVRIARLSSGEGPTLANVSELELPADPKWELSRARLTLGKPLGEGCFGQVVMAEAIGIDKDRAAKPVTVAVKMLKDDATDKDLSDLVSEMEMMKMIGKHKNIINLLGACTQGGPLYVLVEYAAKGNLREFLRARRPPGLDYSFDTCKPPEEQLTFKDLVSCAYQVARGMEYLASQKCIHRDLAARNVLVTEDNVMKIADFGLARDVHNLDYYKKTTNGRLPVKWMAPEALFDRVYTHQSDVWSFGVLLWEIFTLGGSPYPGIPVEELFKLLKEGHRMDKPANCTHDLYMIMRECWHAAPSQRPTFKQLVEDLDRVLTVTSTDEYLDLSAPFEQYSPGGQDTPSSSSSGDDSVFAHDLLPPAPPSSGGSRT

Histone deacetylase 8 = target: T1, Histone deacetylase 8 (Homo sapiens, UniProt Q9BY41); assay: Inhibition of HDAC8 (unknown origin)
T1 sequence (Q9BY41 whole entry): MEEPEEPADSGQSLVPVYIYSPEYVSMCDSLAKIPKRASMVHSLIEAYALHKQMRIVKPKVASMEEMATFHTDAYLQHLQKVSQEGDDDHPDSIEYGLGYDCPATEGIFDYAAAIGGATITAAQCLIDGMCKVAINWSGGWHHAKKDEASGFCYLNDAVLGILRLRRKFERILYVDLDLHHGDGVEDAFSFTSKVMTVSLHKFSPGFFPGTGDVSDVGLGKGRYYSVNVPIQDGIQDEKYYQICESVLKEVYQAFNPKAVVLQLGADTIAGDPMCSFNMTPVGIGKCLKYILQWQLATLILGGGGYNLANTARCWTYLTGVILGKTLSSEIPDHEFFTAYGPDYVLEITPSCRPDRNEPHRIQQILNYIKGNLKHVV

[14] = Half life in Sprague-Dawley rat at 30 mg/kg, po measured for 24 hrs by LC-MS/MS-18 analysis; assay type: ADME, organism-based; conditions: in vivo
[15] = Tmax in Sprague-Dawley rat at 2 mg/kg, iv measured for 24 hrs by LC-MS/MS-18 analysis; assay type: ADME, organism-based; conditions: in vivo
[16] = target: T2, Protein deacetylase HDAC6 (Homo sapiens, UniProt Q9UBN7); assay: Inhibition of HDAC6 (unknown origin)
T2 sequence (Q9UBN7 whole entry): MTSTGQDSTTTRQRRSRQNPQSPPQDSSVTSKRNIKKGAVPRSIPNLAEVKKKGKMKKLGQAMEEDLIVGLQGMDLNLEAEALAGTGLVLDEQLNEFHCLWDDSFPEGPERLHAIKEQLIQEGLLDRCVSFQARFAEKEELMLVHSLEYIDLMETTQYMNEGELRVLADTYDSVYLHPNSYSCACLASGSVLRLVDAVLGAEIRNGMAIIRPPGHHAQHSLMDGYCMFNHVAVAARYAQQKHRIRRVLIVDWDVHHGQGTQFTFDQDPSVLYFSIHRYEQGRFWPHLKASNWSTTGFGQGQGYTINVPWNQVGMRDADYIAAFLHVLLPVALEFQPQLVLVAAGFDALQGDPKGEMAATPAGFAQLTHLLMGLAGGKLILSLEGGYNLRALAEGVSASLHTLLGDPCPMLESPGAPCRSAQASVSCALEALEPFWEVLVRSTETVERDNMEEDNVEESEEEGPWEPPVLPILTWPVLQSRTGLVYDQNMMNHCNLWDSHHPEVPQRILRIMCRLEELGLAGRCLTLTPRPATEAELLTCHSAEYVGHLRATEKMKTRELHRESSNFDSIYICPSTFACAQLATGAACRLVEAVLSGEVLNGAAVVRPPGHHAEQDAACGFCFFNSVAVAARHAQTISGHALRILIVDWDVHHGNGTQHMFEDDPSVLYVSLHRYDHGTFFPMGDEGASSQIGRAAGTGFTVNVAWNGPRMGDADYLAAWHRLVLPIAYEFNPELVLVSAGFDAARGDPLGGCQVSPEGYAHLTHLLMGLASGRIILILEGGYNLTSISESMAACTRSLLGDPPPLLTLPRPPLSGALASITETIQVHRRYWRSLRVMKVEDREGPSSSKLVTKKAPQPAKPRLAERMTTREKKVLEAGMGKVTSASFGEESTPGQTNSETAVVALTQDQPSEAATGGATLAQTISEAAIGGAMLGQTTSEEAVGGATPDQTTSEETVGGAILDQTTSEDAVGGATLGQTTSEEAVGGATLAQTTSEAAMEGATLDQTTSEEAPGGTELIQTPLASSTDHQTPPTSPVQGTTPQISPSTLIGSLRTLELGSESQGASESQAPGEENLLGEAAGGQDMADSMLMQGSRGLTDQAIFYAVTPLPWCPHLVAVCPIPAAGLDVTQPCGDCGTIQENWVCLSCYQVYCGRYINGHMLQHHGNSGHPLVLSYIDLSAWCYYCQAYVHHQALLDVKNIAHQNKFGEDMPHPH

[17] = target: Fibroblast growth factor receptor 2 (Homo sapiens, UniProt P21802); assay: Inhibition of FGFR2 (unknown origin)
Sequence of Fibroblast growth factor receptor 2 (P21802 whole entry): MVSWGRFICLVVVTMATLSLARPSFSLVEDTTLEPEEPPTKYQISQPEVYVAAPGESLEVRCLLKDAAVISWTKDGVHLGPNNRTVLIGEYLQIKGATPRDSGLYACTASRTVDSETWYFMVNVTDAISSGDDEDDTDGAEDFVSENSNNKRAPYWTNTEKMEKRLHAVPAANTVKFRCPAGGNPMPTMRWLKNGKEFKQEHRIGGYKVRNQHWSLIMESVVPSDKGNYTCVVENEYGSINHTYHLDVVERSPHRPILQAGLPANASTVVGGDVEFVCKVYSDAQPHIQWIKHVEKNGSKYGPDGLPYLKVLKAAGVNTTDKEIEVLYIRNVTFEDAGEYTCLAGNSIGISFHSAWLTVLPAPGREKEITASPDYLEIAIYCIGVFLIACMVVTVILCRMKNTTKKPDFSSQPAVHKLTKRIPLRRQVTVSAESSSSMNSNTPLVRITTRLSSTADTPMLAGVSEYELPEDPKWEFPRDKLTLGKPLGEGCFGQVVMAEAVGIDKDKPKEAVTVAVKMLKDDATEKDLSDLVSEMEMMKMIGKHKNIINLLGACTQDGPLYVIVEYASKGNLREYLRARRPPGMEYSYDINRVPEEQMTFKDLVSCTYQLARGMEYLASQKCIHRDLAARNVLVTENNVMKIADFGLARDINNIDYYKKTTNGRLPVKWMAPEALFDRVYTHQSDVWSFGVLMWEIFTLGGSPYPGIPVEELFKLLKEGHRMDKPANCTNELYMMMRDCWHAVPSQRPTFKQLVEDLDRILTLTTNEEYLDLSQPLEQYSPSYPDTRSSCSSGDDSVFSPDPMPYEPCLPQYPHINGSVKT

[18] = Cmax in Sprague-Dawley rat at 30 mg/kg, po measured for 24 hrs by LC-MS/MS-18 analysis; assay type: ADME, organism-based; set-up: dose 30 mg/kg, time 24 hrs, route po; conditions: in vivo
[19] = Toxicity in BALB/c nude mouse xenografted with human HCT-116 cells assessed as reduction in body weight at 15 to 30 mg/kg/day, po administered for 18 days and measured every 3 days; assay type: organism-based; conditions: in vivo, 432 h, dose 15-30 mg/kg/day, time 18 day
[20] = Volume of distribution at steady state in Sprague-Dawley rat at 2 mg/kg, iv measured for 24 hrs by LC-MS/MS-18 analysis; assay type: ADME, organism-based; conditions: in vivo, read-out: Vdss
Histone deacetylase 1 = Histone deacetylase 1 (Homo sapiens, UniProt Q13547); assay: Inhibition of HDAC1 (unknown origin)
Sequence of Histone deacetylase 1 (Q13547 whole entry): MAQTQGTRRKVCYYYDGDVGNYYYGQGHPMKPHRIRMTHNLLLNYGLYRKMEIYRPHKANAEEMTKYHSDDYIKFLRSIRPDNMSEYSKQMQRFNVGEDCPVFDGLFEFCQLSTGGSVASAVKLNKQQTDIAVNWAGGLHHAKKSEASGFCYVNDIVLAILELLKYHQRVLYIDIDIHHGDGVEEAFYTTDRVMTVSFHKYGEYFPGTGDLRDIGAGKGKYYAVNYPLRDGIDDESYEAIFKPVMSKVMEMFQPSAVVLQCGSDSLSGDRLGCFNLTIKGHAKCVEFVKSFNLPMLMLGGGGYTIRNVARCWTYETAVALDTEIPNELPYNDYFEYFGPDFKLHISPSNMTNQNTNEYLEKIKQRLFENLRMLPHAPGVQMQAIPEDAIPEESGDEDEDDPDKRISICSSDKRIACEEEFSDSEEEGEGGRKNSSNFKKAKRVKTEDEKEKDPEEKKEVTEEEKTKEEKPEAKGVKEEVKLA

[21] = Tmax in Sprague-Dawley rat at 30 mg/kg, po measured for 24 hrs by LC-MS/MS-18 analysis; assay type: ADME, organism-based; conditions: in vivo
[22] = AUC (0 to infinity) in Sprague-Dawley rat at 30 mg/kg, po measured for 24 hrs by LC-MS/MS-18 analysis; assay type: ADME, organism-based; set-up: dose 30 mg/kg, time 24 hrs, route po; conditions: in vivo
SNU-16 [23] = assay: Induction of apoptosis in human SNU-16 cells assessed as late apoptotic cells at 1 uM incubated for 72 hrs by annexin-V/FITC propidium iodide staining based flow cytometry analysis (reference value: 3.41%); assay type: functional
SNU-16 [24] = assay: Induction of apoptosis in human SNU-16 cells assessed as dead cells at 0.1 uM incubated for 72 hrs by annexin-V/FITC propidium iodide staining based flow cytometry analysis (reference value: […]); assay type: functional
SNU-16 [25] = assay: Induction of apoptosis in human SNU-16 cells assessed as late apoptotic cells at 0.3 uM incubated for 72 hrs by annexin-V/FITC propidium iodide staining based flow cytometry analysis (reference value: 3.41%); assay type: functional
SNU-16 [26] = assay: Induction of apoptosis in human SNU-16 cells assessed as live cells at 0.1 uM incubated for 72 hrs by annexin-V/FITC propidium iodide staining based flow cytometry analysis (reference value: 90.92%); assay type: functional
SNU-16 [27] = assay: Induction of apoptosis in human SNU-16 cells assessed as early apoptotic cells at 0.3 uM incubated for 72 hrs by annexin-V/FITC propidium iodide staining based flow cytometry analysis (reference value: 3.02%); assay type: functional
SNU-16 [28] = assay: Induction of apoptosis in human SNU-16 cells assessed as early apoptotic cells at 0.03 uM incubated for 72 hrs by annexin-V/FITC propidium iodide staining based flow cytometry analysis (reference value: 3.02%); assay type: functional
[29] = Toxicity in BALB/c nude mouse xenografted with human HCT-116 cells assessed as reduction in body weight at 30 mg/kg/day, po administered for 18 days and measured every 3 days; assay type: organism-based; conditions: in vivo, 432 h, time 18 day
SNU-16 [30] = assay: Induction of apoptosis in human SNU-16 cells assessed as late apoptotic cells at 0.03 uM incubated for 72 hrs by annexin-V/FITC propidium iodide staining based flow cytometry analysis (reference value: 3.41%); assay type: functional
SNU-16 [31] = assay: Induction of apoptosis in human SNU-16 cells assessed as dead cells at 1 uM incubated for 72 hrs by annexin-V/FITC propidium iodide staining based flow cytometry analysis (reference value: […]); assay type: functional
SNU-16 [32] = assay: Induction of apoptosis in human SNU-16 cells assessed as live cells at 0.03 uM incubated for 72 hrs by annexin-V/FITC propidium iodide staining based flow cytometry analysis (reference value: 90.92%); assay type: functional
SNU-16 [33] = assay: Induction of apoptosis in human SNU-16 cells assessed as live cells at 0.3 uM incubated for 72 hrs by annexin-V/FITC propidium iodide staining based flow cytometry analysis (reference value: 90.92%); assay type: functional
SNU-16 [34] = assay: Induction of apoptosis in human SNU-16 cells assessed as dead cells at 0.03 uM incubated for 72 hrs by annexin-V/FITC propidium iodide staining based flow cytometry analysis (reference value: […]); assay type: functional
SNU-16 [35] = assay: Induction of apoptosis in human SNU-16 cells assessed as early apoptotic cells at 1 uM incubated for 72 hrs by annexin-V/FITC propidium iodide staining based flow cytometry analysis (reference value: 3.02%); assay type: functional
SNU-16 [36] = assay: Induction of apoptosis in human SNU-16 cells assessed as live cells at 1 uM incubated for 72 hrs by annexin-V/FITC propidium iodide staining based flow cytometry analysis (reference value: 90.92%); assay type: functional
SNU-16 [37] = assay: Induction of apoptosis in human SNU-16 cells assessed as dead cells at 0.3 uM incubated for 72 hrs by annexin-V/FITC propidium iodide staining based flow cytometry analysis (reference value: […]); assay type: functional
K562 = assay: cells; assay type: functional, cell-based; conditions: Homo sapiens, K562, 72 h
SNU-16 [38] = assay: Induction of apoptosis in human SNU-16 cells assessed as early apoptotic cells at 0.1 uM incubated for 72 hrs by annexin-V/FITC propidium iodide staining based flow cytometry analysis (reference value: 3.02%); assay type: functional
[39] = Toxicity in BALB/c nude mouse xenografted with human SNU-16 cells assessed as reduction in body weight at 50 mg/kg/day, ip administered for 18 days and measured every 3 days; assay type: organism-based; conditions: in vivo, 432 h, time 18 day
SNU-16 [40] = assay: Induction of apoptosis in human SNU-16 cells assessed as late apoptotic cells at 0.1 uM incubated for 72 hrs by annexin-V/FITC propidium iodide staining based flow cytometry analysis (reference value: 3.41%); assay type: functional

COc1cc(OC)cc(N(CCNC(C)C)c2ccc3ncc(-c4cnn(CCCCCCC(=O)NO)c4)nc3c2)c1
clearance [1]: 80.6 mL/min/kg
Cmax [2]: 1120 ng/mL
half-life [3]: 0.98 h
Tmax [4]: 2 h
bioavailability [5]: 24.8%
AUC(0-inf) [6]: 425 ng·h/mL
IC50 (Histone deacetylase 2): 1.6 nM
AUC(0-inf) [7]: 491 ng·h/mL
half-life [8]: 1.83 h
bioavailability [9]: 43.8%
Cmax [10]: 102 ng/mL
IC50 [11]: 1.4 nM
Activity [12]: Non-Toxic
IC50 [13]: 0.46 nM
IC50 (Histone deacetylase 8): 13 nM
half-life [14]: 0.77 h
Tmax [15]: 4.8 min
IC50 [16]: 2.6 nM
IC50 [17]: 1.2 nM
Cmax [18]: 443 ng/mL
Activity [19]: Non-Toxic
Vd [20]: 2.79 L/kg
IC50 (Histone deacetylase 1): 1.3 nM
Tmax [21]: 4 h
AUC(0-inf) [22]: 1560 ng·h/mL

O=C(CCCCCCC(=O)Nc1ccccc1)NO [VORINOSTAT]
Activity (SNU-16 [23]): 15.42%
Activity (SNU-16 [24]): 6.19%
Activity (SNU-16 [25]): 10.46%
Activity (SNU-16 [26]): 80.33%
Activity (SNU-16 [27]): 2.48%
Activity (SNU-16 [28]): 3.12%
Activity [29]: Non-Toxic
Activity (SNU-16 [30]): 6.85%
Activity (SNU-16 [31]): 4.21%
Activity (SNU-16 [32]): 84.26%
Activity (SNU-16 [33]): 80.66%
Activity (SNU-16 [34]): 5.77%
Activity (SNU-16 [35]): 3.16%
Activity (SNU-16 [36]): 77.22%
Activity (SNU-16 [37]): 6.4%
IC50 (K562): 2240 nM
Activity (SNU-16 [38]): 3.51%
Activity [39]: Non-Toxic
Activity (SNU-16 [40]): 9.98%
